From patent US20160215348A1, “GENE EXPRESSION BIOMARKERS AND THEIR USE FOR DIAGNOSTIC AND PROGNOSTIC APPLICATION IN PATIENTS POTENTIALLY IN NEED OF HDAC INHIBITOR TREATMENT” (4SC AG, priority 2013, published 2016)

Tests used:
Assay type in all cases: cell-based, human
Conditions in all cases: standardized to 0 h
HIST2H4A/B [1] = assay: Gene expression in HepG2 cancer cells (in vitro)
Method: (§1) Hatched columns relate to blood, black columns relate to HepG2 cells, white boxes relate to HT 29 cells. Values are standardized to the value at 0 h.
(§2) Samples were obtained and gene expressions were determined with the methods as described herein below. The results are shown in below table 3 and FIGS. 2 and 3
(§3) The above values represent a mean value which was determined on the basis of 2 biological replicates, for each of which 3 technical replicates were prepared. […] The level of gene expression determined in peripheral blood samples can be correlated with a certain level of activity of HDAC in the diseased cells, e.g. by applying an appropriate conversion factor or conversion table, which may be determined for each specific disease, and/or patient group.
(§4) To determine RNA expression levels of ZFP64 in different cancer cell lines and PBMC, the cell membranes were chemically disrupted with a buffer containing guanidine isothiocycanate, which lyses the cells and supports the binding of RNA to a silica membrane and RNA was extracted via a filter-based spin column.
(§5) The High-Capacity cDNA Reverse Transcription Kit (Applied Biosystems) was used for reverse transcription of total RNA into single stranded cDNA with the aid of random hexamer primers according to the manufacturer's instructions. Briefly, for the reaction mix total RNA was mixed with random primers in excess, 4 mM dNTP Mix, 2.5 U/reaction, reverse transcriptase and nuclease free water. The reverse transcription took place in a thermal cycler under the following conditions: 25° C. for 10 min, 37° C. for 120 min, 85° C. for 5 min, followed by 4° C. for cooling down the reaction. The reverse transcription can be done in principle as well with other reverse transcriptases, primers and temperature protocols. Whenever possible, 250 ng total RNA were reverse transcribed if not available, lower amounts were used.
(§6) Custom TaqMan® Arrays (Applied Biosystems) in Format 16 were designed for the gene expression analysis of biomarkers of the present invention and housekeeping genes as outlined in table 4. These arrays allow for qPCR analysis of 8 samples per card. Of course, all reactions can be done as well by conventional qPCR analysis with specific primers.

GAPDH [2] = assay: Gene expression in HepG2 cancer cells (in vitro)
Method: as §1, §2, §3, §4, §5, §6

KDELC2 [3] = assay: Gene expression in HepG2 cancer cells (in vitro)
Method: as §1, §2, §3, §4, §5, §6

TBP [4] = assay: Gene expression in HepG2 cancer cells (in vitro)
Method: as §1, §2, §3, §4, §5, §6

MICALL1 [5] = assay: Gene expression in HepG2 cancer cells (in vitro)
Method: as §1, §2, §3, §4, §5, §6

ZFP64 [6] = assay: Gene expression in HepG2 cancer cells (in vitro)
Method: as §1, §2, §3, §4, §5, §6

18S [7] = assay: Gene expression in HepG2 cancer cells (in vitro)
Method: as §1, §2, §3, §4, §5, §6

CCDC43 [8] = assay: Gene expression in HepG2 cancer cells (in vitro)
Method: as §1, §2, §3, §4, §5, §6

DPP3 [9] = assay: Gene expression in HepG2 cancer cells (in vitro)
Method: as §1, §2, §3, §4, §5, §6

HIST2H4A/B [10] = assay: Gene expression in peripheral blood of healthy donors treated ex vivo
Method: as §1, §2, §3, §5, §6

GAPDH [11] = assay: as above
Method: as §1, §2, §3, §5, §6

KDELC2 [12] = assay: as above
Method: as §1, §2, §3, §5, §6

TBP [13] = assay: as above
Method: as §1, §2, §3, §5, §6

MICALL1 [14] = assay: as above
Method: as §1, §2, §3, §5, §6

ZFP64 [15] = assay: as above
Method: as §1, §2, §3, §5, §6

18S [16] = assay: as above
Method: as §1, §2, §3, §5, §6

CCDC43 [17] = assay: as above
Method: as §1, §2, §3, §5, §6

DPP3 [18] = assay: as above
Method: as §1, §2, §3, §5, §6

In the case of `CN(C)Cc1ccc(S(=O)(=O)n2ccc(/C=C/C(=O)NO)c2)cc1` [resminostat, (E)-3-(1-(4-((dimethylamino)methyl)phenylsulfonyl)-1H-pyrrol-3-yl)-N-hydroxyacrylamide], the “Expression level, HIST2H4A/B” value (HIST2H4A/B [1]; 2 h) is reported as 0.88, the “Expression level, HIST2H4A/B” value (HIST2H4A/B [1]; 5 h) is reported as 1.17 and the “Expression level, GAPDH (housekeeping gene)” value (“Expression level, GAPDH” for short) (GAPDH [2]; 2 h) is reported as 0.96. For the same compound, the “Expression level, GAPDH” value (GAPDH [2]; 5 h) was 1.03, the “Expression level, KDELC2” value (KDELC2 [3]; 2 h) was 0.84 and the “Expression level, KDELC2” value (KDELC2 [3]; 5 h) was 0.54. For the same compound, the “Expression level, TBP (housekeeping gene)” value (shortened to “Expression level, TBP”) (TBP [4]; 2 h) was 1.15, the “Expression level, TBP” value (TBP [4]; 5 h) was 1.12 and the “Expression level, MICALL1” value (MICALL1 [5]; 2 h) was 0.85. For the same compound, the “Expression level, MICALL1” value (MICALL1 [5]; 5 h) was 0.50, the “Expression level, ZFP64” value (ZFP64 [6]; 2 h) was 0.46 and the “Expression level, ZFP64” value (ZFP64 [6]; 5 h) was 0.19. For the same compound, the “Expression level, 18s (housekeeping gene)” value (from here on “Expression level, 18s”) (18S [7]; 2 h) was 0.91, the “Expression level, 18s” value (18S [7]; 5 h) was 0.87 and the “Expression level, CCDC43” value (CCDC43 [8]; 2 h) was 0.70. For the same compound, the “Expression level, CCDC43” value (CCDC43 [8]; 5 h) was 0.46, the “Expression level, DPP3” value (DPP3 [9]; 2 h) was 0.86 and the “Expression level, DPP3” value (DPP3 [9]; 5 h) was 0.72. The “Expression level, HIST2H4A/B” value (HIST2H4A/B [10]; 2 h) was 2.59, the “Expression level, HIST2H4A/B” value (HIST2H4A/B [10]; 5 h) was 4.11 and the “Expression level, GAPDH” value (GAPDH [11]; 2 h) was 1.16. For the same compound, the “Expression level, GAPDH” value (GAPDH [11]; 5 h) was 1.38, the “Expression level, KDELC2” value (KDELC2 [12]; 2 h) was 0.47 and the “Expression level, KDELC2” value (KDELC2 [12]; 5 h) was 0.07. The “Expression level, TBP” value (TBP [13]; 2 h) was 1.03, the “Expression level, TBP” value (TBP [13]; 5 h) was 1.11 and the “Expression level, MICALL1” value (MICALL1 [14]; 2 h) was 0.30. For the same compound, the “Expression level, MICALL1” value (MICALL1 [14]; 5 h) was 0.10, the “Expression level, ZFP64” value (ZFP64 [15]; 2 h) was 0.24 and the “Expression level, ZFP64” value (ZFP64 [15]; 5 h) was 0.15. For the same compound, the “Expression level, 18s” value (18S [16]; 2 h) was 0.83, the “Expression level, 18s” value (18S [16]; 5 h) was 0.66 and the “Expression level, CCDC43” value (CCDC43 [17]; 2 h) was 0.29. For the same compound, the “Expression level, CCDC43” value (CCDC43 [17]; 5 h) was 0.35, the “Expression level, DPP3” value (DPP3 [18]; 2 h) was 0.57 and the “Expression level, DPP3” value (DPP3 [18]; 5 h) was 0.29.
